Source: publication PMC2732992 (Proteins, 2009)

Key:
GluR2o S1S2 domain = GluR2o S1S2 domain (Rattus norvegicus, UniProt P19491, DEL528-650/S652T/V651G); assay: Inhibition of [3H]AMPA binding to GluR2o S1S2; details: GluR2 S1S2 vs GluR3 S1S2, inhibition of [3H]AMPA binding
[1] = test system: GluR2o / GluR3o expressed in insect cells; details: cited from earlier work; for Affinity for GluR2o higher than for GluR3o: receptors expressed in insect cells

For `NC(Cc1onc(O)c1Cl)C(=O)O` (stereo not shown) [Cl-HIBO, 4-chlorohomoibotenic acid], which “Difference in affinity (IC50) between GluR2 S1S2 and GluR3 S1S2” value (GluR2o S1S2 domain) is on record?
Its value is “ten-fold”.

And the “Affinity of homomeric GluR2 greater than GluR3” value ([1]; homomeric receptors, same expression system (insect cells))?
The value was “approximately 100 fold”.

Which “Affinity for GluR2o higher than for GluR3o” value [1] does the source give for `N[C@@H](Cn1cc(F)c(=O)[nH]c1=O)C(=O)O` [fluorowillardiine] here?
The value was 10 fold.

With `N[C@@H](Cn1ccc(=O)[nH]c1=O)C(=O)O` [willardiine] as the compound, how does the “Affinity for GluR2o higher than for GluR3o” value [1] read?
Its value is 10 fold.
